Test results: patent EP3153515A1, “COMPOUNDS FOR INHIBITING HEPATITIS C VIRUS, PHARMACEUTICAL COMPOSITIONS AND USES THEREOF” (priority 2014, dated 2015)

molecular target: HCV NS5A replicon GT-1a; test: HCV NS5A replicon anti-viral activity (EC50), dual-reporter Renilla luciferase, GT-1a; assay type: cell-based; settings: GT-1a replicon; read-out: Inhibitory activity against various HCV-NS5A subtypes(EC50, GT-1a to GT-6a) GT-1a
From the text: The autonomous replication level of HCV in liver cells in vitro is very low, and the only animal that can be infected by HCV is chimpanzee, therefore there is no appropriate animal model currently available for preclinical pharmacodynamic study. Some researchers have transplanted human liver tissue infected with HCV in vitro into immune deficient mice to establish an in vivo mice model, but these mice are hard to raise and the model is unstable and short of normal immunologic reaction. Moreover, the model has significant difference with the pathogenic process of hepatitis C, therefore, it has not been used for animal model to assess the action of anti-HCV medicine yet. The progress of the development of anti-viral drugs for the treatment of HCV infection had been very slow because the pathogenic mechanism and life cycle of HCV were unclear before 1999 due to the lack of cell culture system for effective multiplication of HCV. But researchers managed to achieve a breakthrough in 1999 after numerous attempts. An effective cell culture model-replicon system in which HCV is capable of autonomous replication in transfected human hepatic carcinoma cell line Huh-7 had been established in that year on the basis of subgenomic HCV RNA built with genetic engineering.
The above-mentioned cell culture model-replicon system which has been widely accepted in the industry is used in this invention for ex vivo experiments and subsequent assessment of drugs based on the experiment results.
The therapeutic effect of the compounds of this invention on HCV infection can be preliminarily assessed through the following preclinical in vitro inhibitory action test and can be further confirmed in clinical trials. Other methods used in the invention are also quite familiar to professionals in this field with ordinary technical knowledge. Method for testing the anti-viral activity(EC50) in HCV NS5A replicon system: • The viral replication level in infected cells was determined by testing Renilla luciferase with the newly established dual-reporter gene replicon system. There was a good linear relation between the expression level of the reporter gene and the HCV RNA replication level and viral protein expression level. The anti-viral activity was determined for 3 replicates in 3 replicate cells at five(5) 1:2 diluted concentration gradients, with 1 to 2 positive controls. The EC50 of the compounds was calculated in the end.
The compounds of the invention, or their stereoisomers, tautomers, esterified or amidated prodrugs, or pharmaceutically acceptable salts and mixtures have been subjected to test to determined their therapeutic effects in the treatment of HCV infection. […] Moreover, the results of 6a-6ep(Ia), 6fa-6gq(Ib) and reference compounds Ref-1(BMS-790052), Ref-2(GS5885), Ref-3 in HCV-NS5 inhibition test reveal that the cyclopentanyl/hexamethyleneamino radical containing linear polypeptide compounds 6a-6ep, 6fa-6gq and reference compounds Ref-1, Ref-2, Ref-3 have good HCV inhibitory results. […] The replicons GT-1a, GT-lb, GT-2a, GT-3a, GT-4a, GT-5a and GT-6a used for the test are routine replicons commercially available in this field. Table 1: HCV NS5A replicon inhibitory activity test results of compounds (6a-6gq) of the invention

| Compound | EC50 [nM] |
| --- | --- |
| COC(=O)N[C@H](C(=O)N1CCC[C@H]1c1nc2cc(-c3csc4c(-c5ccc(-c6c[nH]c([C@@H]7CCCN7C(=O)[C@H](NC(=O)OC)c7ccccc7)n6)cc5)csc34)ccc2[nH]1)C(C)C [Ref-4, IDX-719, reference compound] | 0.022 |

same assay, conditions: GT-1a replicon; read-out: NS5A Inhibitory Activity (EC50 of GT-1a subtype inhibition)

| Compound | EC50 [nM] |
| --- | --- |
| COC(=O)N[C@H](C(=O)N1CCC[C@H]1c1nc2cc(-c3csc4c(-c5ccc(-c6c[nH]c([C@@H]7CCCN7C(=O)[C@H](NC(=O)OC)c7ccccc7)n6)cc5)csc34)ccc2[nH]1)C(C)C [Ref-4, IDX-719, reference compound] | 0.001 to 0.999 |

same assay, conditions: Hepatitis C virus, GT1A, read-out: NS5A Inhibitory Activity (EC50 of GT-1a subtype inhibition)

| Compound | EC50 [nM] |
| --- | --- |
| CC(C)[C@H](NC(=O)OC(C)(C)C)C(=O)N1C[C@H](OC(=O)N2Cc3cc4c(cc3C2)OCO4)C[C@H]1c1nc(-c2ccc(-c3ccc(-c4cnc([C@@H]5C[C@@H](OC(=O)N6Cc7cc8c(cc7C6)OCO8)CN5C(=O)[C@@H](NC(=O)OC(C)(C)C)C(C)C)[nH]4)cc3)cc2)c[nH]1 [6p] | > 50 |

same assay, conditions: Hepatitis C virus, GT1A; GT-1a replicon; read-out: NS5A Inhibitory Activity (EC50 of GT-1a subtype inhibition)

| Compound | EC50 [nM] |
| --- | --- |
| COC(=O)N[C@@H](C(=O)N1CC=C[C@H]1c1nc2ccc(-c3csc4c(-c5cnc([C@@H]6CCCN6C(=O)[C@H](NC(=O)OC)c6ccccc6)[nH]5)csc34)cc2[nH]1)c1ccccc1 [6gk] | 0.001 to 0.999 |
| COC(=O)N[C@H](C(=O)N1CC=C[C@H]1c1nc(-c2csc3c(-c4ccc(-c5cnc([C@@H]6CCCN6C(=O)[C@H](NC(=O)OC)c6ccccc6)[nH]5)cc4)csc23)c[nH]1)C(C)C [6ft] | 0.001 to 0.999 |
| COC(=O)N[C@H](C(=O)N1CCC[C@H]1c1nc(-c2ccc(-c3ccc(-c4c[nH]c([C@@H]5C[C@H](Oc6nc7ccccc7nc6-c6cccs6)CN5C(=O)[C@@H](NC(=O)OC)C(C)C)n4)cc3)cc2)c[nH]1)C(C)C [6x] | 0.001 to 0.999 |
| COC(=O)NC(C(=O)N1CC=C[C@H]1c1ncc(-c2ccc(-c3cc4sc(-c5cnc([C@@H]6CCCN6C(=O)[C@@H](NC(=O)OC)C(C)C)[nH]5)cc4s3)cc2)[nH]1)c1ccccc1 (some centres unmarked) [6cb] | > 50 |
| COC(=O)N[C@H](C(=O)N1CCC[C@H]1c1ncc(-c2cc3oc(-c4ccc(-c5cnc([C@@H]6C=CCN6C(=O)[C@H](NC(=O)OC)c6ccccc6)[nH]5)cc4)cc3s2)[nH]1)C(C)C [6fp] | 0.001 to 0.999 |
| COC(=O)NC(C(=O)N1CC=C[C@H]1c1ncc(-c2ccc(-c3ccc(-c4cnc([C@@H]5CCCN5C(=O)C(NC(=O)OC)c5ccccc5)[nH]4)cc3)cc2)[nH]1)c1ccccc1 (some centres unmarked) [6bz] | 0.001 to 0.999 |
| CNC(=O)N[C@@H](C(=O)N1CCC[C@H]1c1ncc(-c2ccc(-c3ccc(-c4cnc([C@@H]5C=CCN5C(=O)[C@@H](NC(=O)OC)C(C)C)[nH]4)cc3)cc2)[nH]1)c1ccccc1 [6dg] | 0.001 to 0.999 |
| COC(=O)N[C@H](C(=O)N1CCC[C@H]1c1ncc(-c2ccc(-c3ccc(-c4cnc([C@@H]5CNCN5C(=O)[C@@H](NC(=O)OC)C(C)C)[nH]4)cc3)cc2)[nH]1)C(C)C [6cu] | 0.001 to 0.999 |
| COC(=O)NC(C(=O)N1CC=C[C@H]1c1nc(-c2ccc(-c3cc4sc(-c5c[nH]c([C@@H]6C=CCN6C(=O)C(NC(=O)OC)c6ccccc6)n5)cc4s3)cc2)c[nH]1)c1ccccc1 (some centres unmarked) [6cd] | > 50 |
| COC(=O)NC(C(=O)N1CC=C[C@H]1c1nc(-c2ccc(-c3cc4sc(-c5c[nH]c([C@@H]6CCCN6C(=O)C(NC(=O)OC)c6ccccc6)n5)cc4s3)cc2)c[nH]1)c1ccccc1 (some centres unmarked) [6cc] | > 50 |
| CNC(=O)NC(C(=O)N1CC=C[C@H]1c1ncc(-c2ccc(-c3ccc(-c4cnc([C@@H]5CCCN5C(=O)C(NC(=O)NC)c5ccccc5)[nH]4)cc3)cc2)[nH]1)c1ccccc1 (some centres unmarked) [6cf] | 0.001 to 0.999 |
| CNC(=O)N[C@H](C(=O)N1CC=C[C@H]1c1ncc(-c2ccc(-c3ccc(-c4cnc([C@@H]5CCCN5C(=O)[C@@H](NC(=O)OC)C(C)C)[nH]4)cc3)cc2)[nH]1)C(C)C [6cj] | 0.001 to 0.999 |
| COC(=O)NC(C(=O)N1CC=C[C@H]1c1ncc(-c2ccc(-c3ccc(-c4cnc([C@@H]5CCCN5C(=O)[C@@H](NC(=O)OC)C(C)C)[nH]4)cc3)cc2)[nH]1)c1ccccc1 (some centres unmarked) [6bx] | 0.001 to 0.999 |
| COC(=O)N[C@H](C(=O)N1CC=C[C@H]1c1nc(-c2ccc(-c3ccc(-c4c[nH]c([C@@H]5CCCN5C(=O)C5(NC(=O)OC)CC5)n4)cc3)cc2)c[nH]1)C(C)C [6bh] | 0.001 to 0.999 |
| COC(=O)N[C@H](C(=O)N1CC=C[C@H]1c1ncc(-c2ccc3c(c2)OC(c2ccccc2)n2c-3cc3cc(-c4cnc([C@@H]5CCCN5C(=O)[C@@H](NC(=O)OC)C(C)C)[nH]4)ccc32)[nH]1)C(C)C (some centres unmarked) [6ej] | 0.001 to 0.999 |
| CC(C)(C)OC(=O)N[C@H](C(=O)N1CC=C[C@H]1c1ncc(-c2ccc(-c3ccc(-c4c[nH]c([C@@H]5CCCN5C(=O)[C@@H](NC(=O)OC(C)(C)C)C(C)(C)C)n4)cc3)cc2)[nH]1)C(C)(C)C [6bb] | > 50 |
| COC(=O)N[C@H](C(=O)N1CC=C[C@H]1c1ncc(-c2ccc(-c3ccc(-c4cnc([C@@H]5CN(S(C)(=O)=O)CN5C(=O)[C@@H](NC(=O)OC)C(C)C)[nH]4)cc3)cc2)[nH]1)C(C)C [6cz] | 0.001 to 0.999 |
| CC(C)[C@H](NC(=O)OC(C)(C)C)C(=O)N1CC=C[C@H]1c1nc(-c2ccc(-c3ccc(-c4cnc([C@@H]5C=CCN5C(=O)[C@@H](NC(=O)OC(C)(C)C)C(C)C)[nH]4)cc3)cc2)c[nH]1 [6be] | 0.001 to 0.999 |
| COC(=O)N[C@H](C(=O)N1CCC[C@H]1c1ncc(-c2ccc(-c3ccc(-c4cnc([C@@H]5C=CCN5C(=O)[C@@H](NC(=O)OC)C5CCCC5)[nH]4)cc3)cc2)[nH]1)C(C)C [6dh] | 0.001 to 0.999 |
| COC(=O)N[C@H](C(=O)N1CCC[C@H]1c1nc2ccc(-c3ccc(-c4ccc5nc([C@@H]6C=CCN6C(=O)[C@H](NC(=O)OC)c6ccccc6)[nH]c5c4)c4c3CC3(CCCCC3)C4)cc2[nH]1)C(C)C [6ep] | 1 to 49.9 |
| COC(=O)NC(C(=O)N1CCC[C@H]1c1nc(-c2ccc(-c3ccc(-c4c[nH]c([C@@H]5C=CCN5C(=O)[C@@H](NC(=O)OC)C(C)C)n4)cc3)cc2)c[nH]1)c1ccccc1 (some centres unmarked) [6by] | 0.001 to 0.999 |
| COC(=O)N[C@H](C(=O)N1CCC[C@H]1c1nc(-c2csc3c(-c4ccc(-c5cnc([C@@H]6C=CCN6C(=O)[C@H](NC(=O)OC)c6ccccc6)[nH]5)cc4)csc23)c[nH]1)C(C)C [6fk] | 0.001 to 0.999 |
| COC(=O)N[C@H](C(=O)N1CC=C[C@H]1c1nc2ccc(-c3csc4c(-c5ccc(-c6cnc([C@@H]7CCCN7C(=O)[C@@H](NC(=O)OC)C(C)C)[nH]6)cc5)csc34)cc2[nH]1)C(C)C [6fz] | 0.001 to 0.999 |
| COC(=O)N[C@H](C(=O)N1CCC[C@H]1c1ncc(-c2ccc(-c3csc4c(-c5ccc6nc([C@@H]7C=CCN7C(=O)[C@H](NC(=O)OC)c7ccccc7)[nH]c6c5)csc34)cc2)[nH]1)C(C)C [6ga] | 0.001 to 0.999 |
| COC(=O)N[C@H](C(=O)N1CC=C[C@H]1c1ncc(-c2ccc(-c3ccc4[nH]c([C@@H]5CC6(CC6)CN5C(=O)[C@@H](NC(=O)OC)C(C)C)nc4c3)cc2)[nH]1)C(C)C [6eb] | 0.001 to 0.999 |
| COC(=O)N[C@H](C(=O)N1CCC[C@H]1c1ncc(-c2csc3c(-c4ccc5nc([C@@H]6C=CCN6C(=O)[C@H](NC(=O)OC)c6ccccc6)[nH]c5c4)csc23)[nH]1)C(C)C [6gj] | 0.001 to 0.999 |
| COC(=O)N[C@H](C(=O)N1CCC[C@H]1c1nc(-c2ccc(-c3ccc(-c4c[nH]c([C@@H]5C[C@@H](Oc6nc7ccccc7nc6-c6cccs6)CN5C(=O)[C@@H](NC(=O)OC)C(C)C)n4)cc3)cc2)c[nH]1)C(C)C [6w] | > 50 |
| COC(=O)N[C@H](C(=O)N1CC=C[C@H]1c1ncc(-c2ccc(-c3ccc(-c4cnc([C@@H]5CN(C(=O)OC(C)C)CN5C(=O)[C@@H](NC(=O)OC)C(C)C)[nH]4)cc3)cc2)[nH]1)C(C)C [6dc] | 0.001 to 0.999 |

same assay, conditions: Hepatitis C virus, genotype 1a / genotype 6a, read-out: Inhibitory activity against various HCV-NS5A subtypes(EC50, GT-1a to GT-6a) GT-1a

| Compound | EC50 [nM] |
| --- | --- |
| COC(=O)N[C@H](C(=O)N1CC=C[C@H]1c1ncc(-c2ccc(-c3csc4c(-c5ccc6nc([C@@H]7CCCN7C(=O)[C@@H](NC(=O)OC)C(C)C)[nH]c6c5)csc34)cc2)[nH]1)C(C)C [6gd] | 0.004 |
| COC(=O)N[C@H](C(=O)N1CC=C[C@H]1c1nc2ccc(-c3csc4c(-c5ccc(-c6cnc([C@@H]7CCCN7C(=O)[C@@H](NC(=O)OC)C(C)C)[nH]6)cc5)csc34)cc2[nH]1)C(C)C [6fz] | 0.007 |

same assay, conditions: comparison drawn from Table 2

| Compound | inhibitory activity compared with Ref-1(BMS-790052), Ref-2(GS5885), Ref-3 and Ref-4 (in words) |
| --- | --- |
| COC(=O)N[C@H](C(=O)N1CC=C[C@H]1c1ncc(-c2ccc(-c3csc4c(-c5ccc6nc([C@@H]7CCCN7C(=O)[C@@H](NC(=O)OC)C(C)C)[nH]c6c5)csc34)cc2)[nH]1)C(C)C [6gd] | significantly superior |
| COC(=O)N[C@H](C(=O)N1CC=C[C@H]1c1nc2ccc(-c3csc4c(-c5ccc(-c6cnc([C@@H]7CCCN7C(=O)[C@@H](NC(=O)OC)C(C)C)[nH]6)cc5)csc34)cc2[nH]1)C(C)C [6fz] | significantly superior |
